In ChEMBL document CHEMBL6134817, “Novel gut-restricted bivalent agonists targeting mucosal 5-HT4R: Design, synthesis, and biological evaluation” (Eur J Med Chem, 2025):

Tests used:
[1] = biological target: T1, 5-hydroxytryptamine receptor 4 (Homo sapiens, UniProt Q13639); assay: Agonist activity at full-length human 5-HT4R stably expressed in HEK293 cells assessed as increase in intracellular cAMP level incubated for 30 mins under dark condition by reporter gene assay; assay type: functional, cell-based
T1 sequence (Q13639 whole entry): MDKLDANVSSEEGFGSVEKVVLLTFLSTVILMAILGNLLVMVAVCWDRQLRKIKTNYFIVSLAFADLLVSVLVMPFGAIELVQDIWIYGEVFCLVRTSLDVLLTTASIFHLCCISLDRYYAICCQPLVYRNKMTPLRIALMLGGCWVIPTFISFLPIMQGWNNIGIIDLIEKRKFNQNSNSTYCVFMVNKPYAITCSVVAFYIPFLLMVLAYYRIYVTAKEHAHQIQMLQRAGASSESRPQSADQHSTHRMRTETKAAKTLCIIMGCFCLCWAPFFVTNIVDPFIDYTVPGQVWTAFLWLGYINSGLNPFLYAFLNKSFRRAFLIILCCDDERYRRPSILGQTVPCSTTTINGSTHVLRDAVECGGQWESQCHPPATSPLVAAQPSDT

[2] = biological target: T1, 5-hydroxytryptamine receptor 4; assay: Agonist activity at full-length human 5-HT4R stably expressed in HEK293 cells assessed as increase in intracellular cAMP level incubated for 30 mins under dark condition by reporter gene assay relative to control; assay type: functional, cell-based
[3] = biological target: T1, 5-hydroxytryptamine receptor 4; assay: Displacement of [3H]-GR113808 from full-length human 5-HT4R stably expressed in HEK293 cell membrane by MicroBeta2 Reader analysis; assay type: cell membranes
[4] = Permeability of compound assessed as compound recovery at 10 uM incubated for 4 hrs by PAMPA; assay type: ADME; details: read-out: Drug recovery
[5] = biological target: Voltage-gated inwardly rectifying potassium channel KCNH2 (Homo sapiens, UniProt Q12809); assay: Inhibition of hERG; assay type: toxicity
Sequence of Voltage-gated inwardly rectifying potassium channel KCNH2 (Q12809 whole entry): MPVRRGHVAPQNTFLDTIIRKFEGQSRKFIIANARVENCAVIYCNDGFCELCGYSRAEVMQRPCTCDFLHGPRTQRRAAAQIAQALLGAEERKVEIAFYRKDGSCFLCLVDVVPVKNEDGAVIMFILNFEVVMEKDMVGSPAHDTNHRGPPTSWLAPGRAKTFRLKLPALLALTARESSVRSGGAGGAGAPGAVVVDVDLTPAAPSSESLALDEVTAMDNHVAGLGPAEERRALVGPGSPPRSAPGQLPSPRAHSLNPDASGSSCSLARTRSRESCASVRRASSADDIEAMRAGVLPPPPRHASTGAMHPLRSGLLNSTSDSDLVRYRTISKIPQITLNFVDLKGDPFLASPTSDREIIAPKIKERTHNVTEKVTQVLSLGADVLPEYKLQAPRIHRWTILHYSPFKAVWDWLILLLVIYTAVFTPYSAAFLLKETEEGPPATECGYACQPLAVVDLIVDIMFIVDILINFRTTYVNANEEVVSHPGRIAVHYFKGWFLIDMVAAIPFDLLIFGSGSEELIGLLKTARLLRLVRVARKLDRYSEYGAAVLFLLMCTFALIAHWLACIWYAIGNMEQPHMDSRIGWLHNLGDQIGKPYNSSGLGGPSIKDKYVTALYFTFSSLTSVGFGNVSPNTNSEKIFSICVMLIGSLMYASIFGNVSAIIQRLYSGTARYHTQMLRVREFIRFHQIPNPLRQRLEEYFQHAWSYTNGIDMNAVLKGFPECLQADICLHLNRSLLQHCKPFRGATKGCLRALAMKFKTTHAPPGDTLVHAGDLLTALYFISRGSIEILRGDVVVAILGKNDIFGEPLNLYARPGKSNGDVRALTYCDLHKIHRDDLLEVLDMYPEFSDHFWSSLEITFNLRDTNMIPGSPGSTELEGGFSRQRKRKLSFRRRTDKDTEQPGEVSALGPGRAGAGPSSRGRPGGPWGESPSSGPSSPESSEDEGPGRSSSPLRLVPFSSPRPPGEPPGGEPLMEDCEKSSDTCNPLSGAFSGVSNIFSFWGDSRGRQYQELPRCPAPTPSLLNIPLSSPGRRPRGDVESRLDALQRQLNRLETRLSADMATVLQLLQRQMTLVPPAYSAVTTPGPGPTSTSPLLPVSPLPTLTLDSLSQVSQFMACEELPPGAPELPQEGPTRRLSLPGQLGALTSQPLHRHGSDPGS

[6] = Apparent permeability coefficient of compound at 10 uM incubated for 4 hrs by PAMPA; assay type: ADME

SMILES	EC50 [1] [nM]	Efficacy ([2]; filed as agonist) [%]	further results
Nc1c(Cl)cc(C(=O)NC2CCN(CCC(=O)NCCOCCOCCNC(=O)N3CCN(C(=O)NCCOCCOCCNC(=O)CCN4CCC(NC(=O)c5cc(Cl)c(N)c6c5OCC6)CC4)CC3)CC2)c2c1CCO2	7.08	127	
Nc1c(Cl)cc(C(=O)NC2CCN(CCCCC(=O)NCCOCCOCCNC(=O)NCCCCNC(=O)NCCOCCOCCNC(=O)CCCCN3CCC(NC(=O)c4cc(Cl)c(N)c5c4OCC5)CC3)CC2)c2c1CCO2	3.02	102	
CN(CCOCCNC(=O)NCCOCCN(C)C(=O)CCCN1CCC(NC(=O)c2cc(Cl)c(N)c3c2OCC3)CC1)C(=O)CCCN1CCC(NC(=O)c2cc(Cl)c(N)c3c2OCC3)CC1	0.07	95.3	Ki [3]: 98.9 nM
Nc1c(Cl)cc(C(=O)NC2CCN(CCC(=O)NCCOCCOCCNC(=O)C3(C(=O)NCCOCCOCCNC(=O)CCN4CCC(NC(=O)c5cc(Cl)c(N)c6c5OCC6)CC4)CCCCC3)CC2)c2c1CCO2	3	116	
Nc1c(Cl)cc(C(=O)NC2CCN(CCC(=O)NCCOCCOCCNC(=O)C(O)C(O)C(=O)NCCOCCOCCNC(=O)CCN3CCC(NC(=O)c4cc(Cl)c(N)c5c4OCC5)CC3)CC2)c2c1CCO2 (configuration not stated)	3.28	123	
Nc1c(Cl)cc(C(=O)NC2CCN(CCC(=O)NCCOCCOCCNC(=O)C3(C(=O)NCCOCCOCCNC(=O)CCN4CCC(NC(=O)c5cc(Cl)c(N)c6c5OCC6)CC4)CCC3)CC2)c2c1CCO2	8.05	122	
Nc1c(Cl)cc(C(=O)NC2CCN(CCC(=O)NCCOCCNC(=O)NCCOCCNC(=O)CCN3CCC(NC(=O)c4cc(Cl)c(N)c5c4OCC5)CC3)CC2)c2c1CCO2	0.85	123	
Nc1c(Cl)cc(C(=O)NC2CCN(CCCC(=O)NCCOCCOCCNC(=O)NCCCCNC(=O)NCCOCCOCCNC(=O)CCCN3CCC(NC(=O)c4cc(Cl)c(N)c5c4OCC5)CC3)CC2)c2c1CCO2	2.33	92.4	
Nc1c(Cl)cc(C(=O)NC2CCN(CCC(=O)NCCOCCOCCNC(=O)C3(C(=O)NCCOCCOCCNC(=O)CCN4CCC(NC(=O)c5cc(Cl)c(N)c6c5OCC6)CC4)CCCC3)CC2)c2c1CCO2	2.99	130	
Nc1c(Cl)cc(C(=O)NC2CCN(CCC(=O)NCCOCCOCCNC(=O)NCCOCCOCCNC(=O)CCN3CCC(NC(=O)c4cc(Cl)c(N)c5c4OCC5)CC3)CC2)c2c1CCO2	0.95	103	
Nc1c(Cl)cc(C(=O)NC2CCN(CCC(=O)NCCOCCOCCNC(=O)Nc3ccc(NC(=O)NCCOCCOCCNC(=O)CCN4CCC(NC(=O)c5cc(Cl)c(N)c6c5OCC6)CC4)cc3)CC2)c2c1CCO2	10.5	89.8	
Nc1c(Cl)cc(C(=O)NC2CCN(CCC(=O)NCCOCCOCCNC(=O)NCCCCNC(=O)NCCOCCOCCNC(=O)CCN3CCC(NC(=O)c4cc(Cl)c(N)c5c4OCC5)CC3)CC2)c2c1CCO2	6.46	112	Ki [3]: 197 nM
Nc1c(Cl)cc(C(=O)NC2CCN(CCNC(=O)CCOCCOCCNC(=O)NCCCCNC(=O)NCCOCCOCCNC(=O)CCN3CCC(NC(=O)c4cc(Cl)c(N)c5c4OCC5)CC3)CC2)c2c1CCO2	5.18	89.7	
Nc1c(Cl)cc(C(=O)NC2CCN(CCC(=O)NCCOCCOCCNC(=O)N[C@H]3CC[C@H](NC(=O)NCCOCCOCCNC(=O)CCN4CCC(NC(=O)c5cc(Cl)c(N)c6c5OCC6)CC4)CC3)CC2)c2c1CCO2	6.82	122	
Nc1c(Cl)cc(C(=O)NC2CCN(CCC(=O)NCCCCCCCCNC(=O)NCCCCCCNC(=O)NCCCCCCCCNC(=O)CCN3CCC(NC(=O)c4cc(Cl)c(N)c5c4OCC5)CC3)CC2)c2c1CCO2	17.6	90.9	
Nc1c(Cl)cc(C(=O)NC2CCN(CCC(=O)NCCOCCOCCNC(=O)CCC(=O)NCCOCCOCCNC(=O)CCN3CCC(NC(=O)c4cc(Cl)c(N)c5c4OCC5)CC3)CC2)c2c1CCO2	4.71	116	
Nc1c(Cl)cc(C(=O)NC2CCN(CCC(=O)NCCOCCOCCNC(=O)N[C@H]3CC[C@@H](NC(=O)NCCOCCOCCNC(=O)CCN4CCC(NC(=O)c5cc(Cl)c(N)c6c5OCC6)CC4)CC3)CC2)c2c1CCO2	2.08	108	
Nc1c(Cl)cc(C(=O)NCC2CCN(CCCCCNC(=O)CCOCCOCCNC(=O)NCCCCNC(=O)NCCOCCOCCC(=O)NCCCCCN3CCC(CNC(=O)c4cc(Cl)c(N)c5c4OCC5)CC3)CC2)c2c1CCO2	0.17	113	Ki [3]: 1.49 nM
Nc1c(Cl)cc(C(=O)NC2CCN(CCC(=O)NCCOCCOCCNC(=O)/C=C/C(=O)NCCOCCOCCNC(=O)CCN3CCC(NC(=O)c4cc(Cl)c(N)c5c4OCC5)CC3)CC2)c2c1CCO2	6.69	98	
Nc1c(Cl)cc(C(=O)NC2CCN(CCC(=O)NCCCCCCCCNC(=O)NCCNC(=O)NCCCCCCCCNC(=O)CCN3CCC(NC(=O)c4cc(Cl)c(N)c5c4OCC5)CC3)CC2)c2c1CCO2	5.88	125	
Nc1c(Cl)cc(C(=O)NCC2CCN(CCCCCC(=O)NCCOCCOCNC(=O)N[C@H]3CC[C@H](NC(=O)NCOCCOCCNC(=O)CCCCCN4CCC(CNC(=O)c5cc(Cl)c(N)c6c5OCC6)CC4)CC3)CC2)c2c1CCO2	1.39	104	
Nc1c(Cl)cc(C(=O)NC2CCN(CCC(=O)NCCCCCCCCNC(=O)NCCCCNC(=O)NCCCCCCCCNC(=O)CCN3CCC(NC(=O)c4cc(Cl)c(N)c5c4OCC5)CC3)CC2)c2c1CCO2	747	125	
Nc1c(Cl)cc(C(=O)NC2CCN(CCC(=O)NCCOCCNC(=O)NCCCCNC(=O)NCCOCCNC(=O)CCN3CCC(NC(=O)c4cc(Cl)c(N)c5c4OCC5)CC3)CC2)c2c1CCO2	3.71	119	
Nc1c(Cl)cc(C(=O)NC2CCN(CCC(=O)NCCOCCOCCNC(=O)c3ccc(C(=O)NCCOCCOCCNC(=O)CCN4CCC(NC(=O)c5cc(Cl)c(N)c6c5OCC6)CC4)cc3)CC2)c2c1CCO2	5.67	110	
Nc1c(Cl)cc(C(=O)NC2CCN(CCC(=O)NCCOCCOCCNC(=O)N3CC4(C3)CN(C(=O)NCCOCCOCCNC(=O)CCN3CCC(NC(=O)c5cc(Cl)c(N)c6c5OCC6)CC3)C4)CC2)c2c1CCO2	11.4	122	
Nc1c(Cl)cc(C(=O)NCCC2CCN(CCC(=O)NCCOCCOCCNC(=O)NCCCCNC(=O)NCCOCCOCCNC(=O)CCN3CCC(CCNC(=O)c4cc(Cl)c(N)c5c4OCC5)CC3)CC2)c2c1CCO2	81.4	102	
Nc1c(Cl)cc(C(=O)NC2CCN(CCCCCC(=O)NCCOCCOCCNC(=O)NCCCCNC(=O)NCCOCCOCCNC(=O)CCCCCN3CCC(NC(=O)c4cc(Cl)c(N)c5c4OCC5)CC3)CC2)c2c1CCO2	3.81	106	

Now from value to compound, other results behind:

EC50 [1] [nM]	Efficacy ([2]; filed as agonist) [%]	SMILES	further results
5.46	129	CC(C)(C(=O)NCCOCCOCCNC(=O)CCN1CCC(NC(=O)c2cc(Cl)c(N)c3c2OCC3)CC1)C(=O)NCCOCCOCCNC(=O)CCN1CCC(NC(=O)c2cc(Cl)c(N)c3c2OCC3)CC1	
0.4	107	Nc1c(Cl)cc(C(=O)NCC2CCN(CCC(=O)NCCOCCOCCNC(=O)NCCCCNC(=O)NCCOCCOCCNC(=O)CCN3CCC(CNC(=O)c4cc(Cl)c(N)c5c4OCC5)CC3)CC2)c2c1CCO2	Ki [3]: 54.8 nM
2.66	115	Nc1c(Cl)cc(C(=O)NC2CCN(CCC(=O)NCCOCCOCCNC(=O)N[C@H]3C[C@H](NC(=O)NCCOCCOCCNC(=O)CCN4CCC(NC(=O)c5cc(Cl)c(N)c6c5OCC6)CC4)C3)CC2)c2c1CCO2	
> 10000		O=C(CCN1CCC(COc2noc3c(O[C@@H]4CCOC4)cccc23)CC1)NCCOCCOCCNC(=O)NCCCCNC(=O)NCCOCCOCCNC(=O)CCN1CCC(COc2noc3cccc(O[C@@H]4CCOC4)c23)CC1	Efficacy [2]: 0.16%
6.71	125	Nc1c(Cl)cc(C(=O)NC2CCN(CCC(=O)NCCOCCOCCOCCNC(=O)NCCCCNC(=O)NCCOCCOCCOCCNC(=O)CCN3CCC(NC(=O)c4cc(Cl)c(N)c5c4OCC5)CC3)CC2)c2c1CCO2	
0.33	88.6	Nc1c(Cl)cc(C(=O)NC2CCN(CCCC(=O)NCCOCCNC(=O)NCCOCCNC(=O)CCCN3CCC(NC(=O)c4cc(Cl)c(N)c5c4OCC5)CC3)CC2)c2c1CCO2	Ki [3]: 75 nM
1.07	119	Nc1c(Cl)cc(C(=O)NC2CCN(CCC(=O)NCCOCCOCCOCCNC(=O)NCCOCCOCCOCCNC(=O)CCN3CCC(NC(=O)c4cc(Cl)c(N)c5c4OCC5)CC3)CC2)c2c1CCO2	
2.5	128	Nc1c(Cl)cc(C(=O)NC2CCN(CCC(=O)NCCOCCOCCNC(=O)C3(C(=O)NCCOCCOCCNC(=O)CCN4CCC(NC(=O)c5cc(Cl)c(N)c6c5OCC6)CC4)CC3)CC2)c2c1CCO2	
3.1	85.6	Nc1c(Cl)cc(C(=O)NC2CCN(CCNCCOCCOCCNC(=O)N[C@H]3CCCC[C@@H]3NC(=O)NCCOCCOCCNC(=O)CCN3CCC(NC(=O)c4cc(Cl)c(N)c5c4OCC5)CC3)CC2)c2c1CCO2	
4.91	104	Nc1c(Cl)cc(C(=O)NC2CCN(CCC(=O)NCCOCCOCCNC(=O)COCC(=O)NCCOCCOCCNC(=O)CCN3CCC(NC(=O)c4cc(Cl)c(N)c5c4OCC5)CC3)CC2)c2c1CCO2	
	110	COCCCN1CCC(NC(=O)c2cc(Cl)c(N)c3c2OCC3)CC1 [PRUCALOPRIDE]	recovery at 4 h, 10 µM [4]: 92.4%; IC50 [5]: 4100 nM; Papp at 4 h, 10 µM [6]: < 0.0185 ×10⁻⁶ cm/s
43.6	102	COc1cc(N)c(Cl)cc1C(=O)NC1CCN(CCC(=O)NCCOCCOCCNC(=O)NCCCCNC(=O)NCCOCCOCCNC(=O)CCN2CCC(NC(=O)c3cc(Cl)c(N)cc3OC)CC2)CC1	
> 10000	47.8	CC(C)n1nc(-c2nnc(C3CCN(CCC(=O)NCCOCCOCCNC(=O)NCCCCNC(=O)NCCOCCOCCNC(=O)CCN4CCC(c5nnc(-c6nn(C(C)C)c7ccccc67)o5)CC4)CC3)o2)c2ccccc21	
